Assay [1] is described as follows: Binding parameter for complete inhibition of Wild type Transthyretin amyloid fibril formation at pH 4.4 with negative cooperativity by the compound at a concentration of (10.8).
The nature of assay [2]: Concentration completly inhibiting Wild type TTR amyloid fibril formation at pH 4.4. The assay is classed as functional.

In assay [1], `O=C(O)c1ccccc1Nc1cccc(C(F)(F)F)c1` displayed a KD1 of 30.1 nM and a KD2 of 255 nM.

`O=C(O)c1cccc(Nc2ccccc2C(=O)O)c1` had a Concentration in assay [2] of 7.6 µM.

The values are drawn from ChEMBL document CHEMBL1131690, “Synthesis and evaluation of anthranilic acid-based transthyretin amyloid fibril inhibitors” (Bioorg Med Chem Lett, 1999).
